The values that follow are results of earlier work, collected in PubChem BioAssay AID1259409 (Chemical Carcinogenesis Research Information System (CCRIS), 2018).

In this series the test system is rodent chemically induced tumor inhibition, incidence and multiplicity. Briefly: CCRIS tumor inhibitor studies.

Take Ac-SDAAVDTSSEITTKDLKEKKEVVEEAEN-OH: the “tumour outcome (control, treated, inhibition, significance)” value is, setting by setting: (Carcinogen: N-BUTYL-N-(4-HYDROXYBUTYL)NITROSAMINE, 3817-11-6, Dose [Inhibitor]: 0, 0.3 UG IN 100 µL SALINE INJECTED INTO RIGHT THIGH 2/WK FOR 20 WK (STUDY DURATION: 20 WK), Route [Inhibitor]: INTRAMUSCULAR, Species: MOUSE, Strain/Sex: C3H/HEJ/FEMALE, Target Tissue: Type of Lesion: BLADDER: CARCINOMA, Dose [Carcinogen]: 0.05% (W/V) SOLUTION IN DRINKING WATER WITH 0.001% (W/V) TWEEN 80 FOR 20 WK, Promoter: NONE USED) 6/11 (55%), 5/12 (42%), 24%, not significant; (Carcinogen: N-BUTYL-N-(4-HYDROXYBUTYL)NITROSAMINE, 3817-11-6, Dose [Inhibitor]: 0, 0.3 UG IN 100 µL SALINE INJECTED INTO RIGHT THIGH 2/WK FOR 25 WK (STUDY DURATION: 25 WK), Route [Inhibitor]: INTRAMUSCULAR, Species: MOUSE, Strain/Sex: C3H/HEJ/FEMALE, Target Tissue: Type of Lesion: BLADDER: CARCINOMA, Dose [Carcinogen]: 0.05% (W/V) SOLUTION IN DRINKING WATER WITH 0.001% (W/V) TWEEN 80 FOR 25 WK, Promoter: NONE USED) 9/16 (56%), 9/16 (56%), 0%, not significant; (Carcinogen: N-BUTYL-N-(4-HYDROXYBUTYL)NITROSAMINE, 3817-11-6, Dose [Inhibitor]: 0, 6 UG IN 100 µL SALINE INJECTED INTO RIGHT THIGH 2/WK FOR 30 WK (STUDY DURATION: 30 WK), Route [Inhibitor]: INTRAMUSCULAR, Species: RAT, Strain/Sex: WISTAR/FEMALE, Target Tissue: Type of Lesion: BLADDER: CARCINOMA, Dose [Carcinogen]: 0.025% (W/V) SOLUTION IN DRINKING WATER WITH 0.0005% (W/V) TWEEN 80 FOR 30 WK, Promoter: NONE USED) 9/11 (82%), 6/11 (55%), 33%, not significant.
For `N#CCc1c[nH]c2ccccc12`, the “tumour outcome (control, treated, inhibition, significance)” value (Carcinogen: 7,12-DIMETHYLBENZ[A]ANTHRACENE, 57-97-6, Dose [Inhibitor]: 0.03 MMOL/G DIET DAILY STARTING 8 D PRIOR TO AND CONTINUING THROUGH CARCINOGEN ADMINISTRATION FOLLOWED BY A 14 WK OBSERV, Route [Inhibitor]: ORAL, Species: RAT, Strain/Sex: SPRAGUE-DAWLEY/FEMALE, Target Tissue: Type of Lesion: MAMMARY GLAND: TUMOR, Dose [Carcinogen]: 12 MG IN 1 ML OLIVE OIL ONCE, Promoter: NONE USED) is listed as 73%, 54%, 26%, not significant; the “tumour outcome (control, treated, inhibition, significance)” value (Carcinogen: 7,12-DIMETHYLBENZ[A]ANTHRACENE, 57-97-6, Dose [Inhibitor]: 0.1 MMOL IN 1 ML DIMETHYL SULFOXIDE ONCE 20 HR PRIOR TO CARCINOGEN ADMINISTRATION FOLLOWED BY A 14 WK OBSERVATION PERIOD, Route [Inhibitor]: GAVAGE, Species: RAT, Strain/Sex: SPRAGUE-DAWLEY/FEMALE, Target Tissue: Type of Lesion: MAMMARY GLAND: TUMOR, Dose [Carcinogen]: 12 MG IN 1 ML OLIVE OIL ONCE, Promoter: NONE) is 91%, 73%, 20%, not significant; the “tumour outcome (control, treated, inhibition, significance)” value (Carcinogen: 7,12-DIMETHYLBENZ[A]ANTHRACENE, 57-97-6, Dose [Inhibitor]: 0.1 MMOL IN 1 ML DIMETHYL SULFOXIDE ONCE 20 HR PRIOR TO CARCINOGEN ADMINISTRATION FOLLOWED BY A 14 WK OBSERVATION PERIOD, Route [Inhibitor]: GAVAGE, Species: RAT, Strain/Sex: SPRAGUE-DAWLEY/FEMALE, Target Tissue: Type of Lesion: MAMMARY GLAND: TUMOR, Dose [Carcinogen]: 12 MG IN 1 ML OLIVE OIL ONCE, Promoter: NONE USED) was 60%, 50%, 17%, not significant; the “tumour outcome (control, treated, inhibition, significance)” value (Carcinogen: BENZO[A]PYRENE, 50-32-8, Dose [Inhibitor]: 0.03 MMOL/G DIET DAILY STARTING AT 63 D OF AGE (8 D PRIOR TO START OF CARCINOGEN TREATMENT) THROUGH 98 D OF AGE FOLLOWED, Route [Inhibitor]: ORAL, Species: MOUSE, Strain/Sex: ICR/FEMALE, Target Tissue: Type of Lesion: FORESTOMACH: TUMOR, Dose [Carcinogen]: 1 MG IN 0.2 ML CORN OIL ADMINISTERED 2/WK FOR 4 WK, Promoter: NONE USED) is given as 93%, 68%, 27%, not significant; the “tumour outcome (control, treated, inhibition, significance)” value (Carcinogen: BENZO[A]PYRENE, 50-32-8, Dose [Inhibitor]: 0.03 MMOL/G DIET DAILY STARTING AT 63 D OF AGE (8 D PRIOR TO START OF CARCINOGEN TREATMENT) THROUGH 126 D OF AGE FOLLOWE, Route [Inhibitor]: ORAL, Species: MOUSE, Strain/Sex: ICR/FEMALE, Target Tissue: Type of Lesion: FORESTOMACH: TUMOR, Dose [Carcinogen]: 0.3 MG IN 0.2 ML CORN OIL ADMINISTERED 3/WK FOR 8 WK, Promoter: NONE USED) is recorded as 100%, 44%, 56%, p<0.01.
Turning to `c1ccc2c(c1)Nc1ccccc1S2`, where the note is “Carcinogen: BENZO[A]PYRENE, 50-32-8, Dose [Inhibitor]: 0, 3.8 UMOL/G DIET BEGINNING 1 WK PRIOR TO CARCINOGEN TREATMENT AND CONTINUING FOR 1 WK POST CARCINOGEN TREATMENT FOLLOW, Route [Inhibitor]: ORAL, Species: MOUSE, Strain/Sex: CD-1/FEMALE, Target Tissue: Type of Lesion: FORESTOMACH: PAPILLOMA, Dose [Carcinogen]: 1 MG IN 0.2 ML CORN OIL 2/WK FOR 4 WK, Promoter: NONE USED”, the “tumour outcome (control, treated, inhibition, significance)” value was 85%, 100%, -18%, not significant.
Turning to `CC(C)[C@@H](C)/C=C/[C@@H](C)[C@H]1CC[C@H]2C3=CC=C4C[C@@H](O)CC[C@]4(C)[C@H]3CC[C@]12C`, the “tumour outcome (control, treated, inhibition, significance)” value (Carcinogen: 7,12-DIMETHYLBENZ[A]ANTHRACENE, 57-97-6, Dose [Inhibitor]: 0, 2 UMOL IN 100 µL ACETONE:DIMETHYLSULFOXIDE (9:1) 2/WK FOR 18 WK APPLIED 30 MIN PRIOR TO EACH PROMOTER DOSE (STUDY DUR, Route [Inhibitor]: DERMAL, Species: MOUSE, Strain/Sex: ICR/FEMALE, Target Tissue: Type of Lesion: SKIN: PAPILLOMA, Dose [Carcinogen]: 50 UG IN 100 µL ACETONE ONCE, Promoter: 12-O-TETRADECANOYLPHORBOL-13-ACETATE, 16561-29-8) is reported as 100%, 40%, 60%, not calculated.
As to `C#C[C@]1(O)CC[C@H]2[C@@H]3CCc4cc(CC)ccc4[C@H]3CC[C@@]21C` (tested in a mixture with another compound), the “tumour outcome (control, treated, inhibition, significance)” value by setting is: (Carcinogen: 3-METHYLCHOLANTHRENE, 56-49-5, Dose [Inhibitor]: 0, 1/200 OF A PILL CONTAINING 0.25 UG ETHINYLESTRADIOL AND 5 UG LYNESTRENOL 1/D FOR 60 D (STUDY DURATION: 60 D), Route [Inhibitor]: ORAL, Species: MOUSE, Strain/Sex: SWISS/FEMALE, Target Tissue: Type of Lesion: UTERINE CERVIX: TUMOR, Dose [Carcinogen]: 300 UG IN BEESWAX IMPREGNATED COTTON THREAD INSERTED INTO CANAL OF UTERINE CERVIX FOR DURATION OF STUDY, Promoter: NONE USED) 2/23 (9%), 1/27 (4%), 56%, not significant; (Carcinogen: 3-METHYLCHOLANTHRENE, 56-49-5, Dose [Inhibitor]: 0, 1/200 OF A PILL CONTAINING 0.25 UG ETHINYLESTRADIOL AND 5 UG LYNESTRENOL 1/D FOR 90 D (STUDY DURATION: 90 D), Route [Inhibitor]: ORAL, Species: MOUSE, Strain/Sex: SWISS/FEMALE, Target Tissue: Type of Lesion: UTERINE CERVIX: TUMOR, Dose [Carcinogen]: 300 UG IN BEESWAX IMPREGNATED COTTON THREAD INSERTED INTO CANAL OF UTERINE CERVIX FOR DURATION OF STUDY, Promoter: NONE USED) 6/23 (26%), 4/20 (20%), 23%, not significant; (Carcinogen: 3-METHYLCHOLANTHRENE, 56-49-5, Dose [Inhibitor]: 0, 1/2000 OF A PILL CONTAINING 0.025 UG ETHINYLESTRADIOL AND 0.5 UG OF LYNESTRENOL 1/D FOR 60 D (STUDY DURATION: 60 D), Route [Inhibitor]: ORAL, Species: MOUSE, Strain/Sex: SWISS/FEMALE, Target Tissue: Type of Lesion: UTERINE CERVIX: TUMOR, Dose [Carcinogen]: 300 UG IN BEESWAX IMPREGNATED COTTON THREAD INSERTED INTO CANAL OF UTERINE CERVIX FOR DURATION OF STUDY, Promoter: NONE USED) 2/23 (9%), 1/24 (4%), 56%, not significant; (Carcinogen: 3-METHYLCHOLANTHRENE, 56-49-5, Dose [Inhibitor]: 0, 1/2000 OF A PILL CONTAINING 0.025 UG ETHINYLESTRADIOL AND 0.5 UG OF LYNESTRENOL 1/D FOR 90 D (STUDY DURATION: 90 D), Route [Inhibitor]: ORAL, Species: MOUSE, Strain/Sex: SWISS/FEMALE, Target Tissue: Type of Lesion: UTERINE CERVIX: TUMOR, Dose [Carcinogen]: 300 UG IN BEESWAX IMPREGNATED COTTON THREAD INSERTED INTO THE CANAL OF THE UTERINE CERVIX FOR THE DURATION OF STUDY, Promoter: NONE USED) 6/23 (26%), 1/31 (3%), 88%, p<0.05.
Turning to `C[C@H]1CC[C@@]2(C)C(=CC[C@@H]3[C@@H]2CC[C@]2(C)C(=O)CC[C@@H]32)C1`, where the note is “Carcinogen: 7,12-DIMETHYLBENZ[A]ANTHRACENE, 57-97-6, Dose [Inhibitor]: 100 UG IN 0.2 ML ACETONE 1 HR BEFORE EACH WEEKLY APPLICATION OF DMBA (STUDY DURATION: 290 D), Route [Inhibitor]: DERMAL, Species: MOUSE, Strain/Sex: CD-1/FEMALE, Target Tissue: Type of Lesion: SKIN: CARCINOMA, Dose [Carcinogen]: 200 NMOL AT 6-7 WK OF AGE THEN 100 NMOL IN 0.2 ML ACETONE 1 WK BEGINNING 2 WK LATER, Promoter: NONE USED”, the “tumour outcome (control, treated, inhibition, significance)” value is recorded as 14/28 (50%), 1/28 (4%), 92%, p<0.001. In addition, the outcome (Carcinogen: 7,12-DIMETHYLBENZ[A]ANTHRACENE, 57-97-6, Dose [Inhibitor]: 400 UG IN 0.2 ML ACETONE 1 HR BEFORE EACH WEEKLY APPLICATION OF DMBA (STUDY DURATION: 290 D), Route [Inhibitor]: DERMAL, Species: MOUSE, Strain/Sex: CD-1/FEMALE, Target Tissue: Type of Lesion: SKIN: CARCINOMA, Dose [Carcinogen]: 200 NMOL AT 6-7 WK OF AGE THEN 100 NMOL IN 0.2 ML ACETONE 1/WK BEGINNING 2 WK LATER, Promoter: NONE USED) is given as 14/28 (50%), 3/29 (10), 80%, p<0.001.
